Laboratory results published in PMC4447944 (The Journal of Biological Chemistry, 2015).

Experiments:
hGCN2(Kin.Dom.2,S808G) = target: T1, hGCN2(Kin.Dom.2,S808G) (Homo sapiens, UniProt Q9P2K8, S808G); assay: KINOMEscan; type: binding
T1 construct: hGCN2(Kin.Dom.2,S808G); purchased DiscoverX

hHIPK1 = target: T2, hHIPK1 (Homo sapiens, UniProt Q86Z02); assay: KINOMEscan; type: binding
T2 construct: purchased DiscoverX

hCSNK1A1 = target: T3, hCSNK1A1 (Homo sapiens, UniProt P48729); assay: KINOMEscan; type: binding
T3 construct: purchased DiscoverX (KINOMEscan platform)

hITK = target: T4, hITK (Homo sapiens, UniProt Q08881); assay: KINOMEscan; type: binding
T4 construct: purchased DiscoverX (KINOMEscan panel)

hMAP3K2 = target: T5, hMAP3K2 (Homo sapiens, UniProt Q9Y2U5); assay: KINOMEscan; type: binding
T5 construct: purchased DiscoverX (KINOMEscan platform)

hERK8 = target: T6, hERK8 (Homo sapiens, UniProt Q8TD08); assay: KINOMEscan; type: binding
T6 construct: purchased DiscoverX

hPRP4 = target: T7, hPRP4 (Homo sapiens, UniProt Q13523); assay: KINOMEscan; type: binding
T7 construct: purchased DiscoverX

hFAK = target: T8, hFAK (Homo sapiens, UniProt Q05397); assay: KINOMEscan; type: binding
T8 construct: purchased DiscoverX

hS6K1 = target: T9, hS6K1 (Homo sapiens, UniProt P23443); assay: KINOMEscan; type: binding
T9 construct: purchased DiscoverX (KINOMEscan platform)

hRET(V804M) = target: T10, hRET(V804M) (Homo sapiens, UniProt P07949, V804M); assay: KINOMEscan; type: binding
T10 construct: purchased DiscoverX (KINOMEscan platform)

hSIK2 = target: T11, hSIK2 (Homo sapiens, UniProt Q9H0K1); assay: KINOMEscan; type: binding
T11 construct: purchased DiscoverX (KINOMEscan platform)

hDAPK1 = target: T12, hDAPK1 (Homo sapiens, UniProt P53355); assay: KINOMEscan; type: binding
T12 construct: purchased DiscoverX (KINOMEscan platform)

hHASPIN = target: T13, hHASPIN (Homo sapiens, UniProt Q8TF76); assay: KINOMEscan; type: binding
T13 construct: purchased DiscoverX

hFGFR1 = target: T14, hFGFR1 (Homo sapiens, UniProt P11362); assay: KINOMEscan; type: binding
T14 construct: purchased DiscoverX

hADRα2A [1] = target: T15, hADRα2A (Homo sapiens, UniProt P08913); assay: cAMP Potentiation (Eurofins-CEREP); details: @ 10 μM
T15 sequence (P08913 1-465): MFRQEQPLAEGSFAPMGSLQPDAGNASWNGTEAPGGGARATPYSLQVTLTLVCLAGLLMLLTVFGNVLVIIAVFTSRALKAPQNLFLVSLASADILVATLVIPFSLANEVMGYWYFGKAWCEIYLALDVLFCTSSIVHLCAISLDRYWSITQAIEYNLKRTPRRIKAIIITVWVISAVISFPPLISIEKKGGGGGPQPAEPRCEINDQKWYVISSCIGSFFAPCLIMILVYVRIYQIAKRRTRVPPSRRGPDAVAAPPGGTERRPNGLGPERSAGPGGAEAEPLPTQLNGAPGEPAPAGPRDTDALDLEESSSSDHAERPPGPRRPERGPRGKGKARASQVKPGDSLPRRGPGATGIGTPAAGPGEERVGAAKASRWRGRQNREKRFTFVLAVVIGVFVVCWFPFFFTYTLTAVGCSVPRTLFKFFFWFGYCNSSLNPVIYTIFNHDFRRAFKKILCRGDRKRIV

hEGFR(L858R) = target: T16, hEGFR(L858R) (Homo sapiens, UniProt P00533, L858R); assay: KINOMEscan; type: binding
T16 construct: purchased DiscoverX

hCIT = target: T17, hCIT (Homo sapiens, UniProt O14578); assay: KINOMEscan; type: binding
T17 construct: purchased DiscoverX

hADRβ1 = hADRβ1 (Homo sapiens, UniProt P08588); assay: cAMP Potentiation (Eurofins-CEREP); details: @ 10 μM
hH1 = hH1 (Homo sapiens, UniProt P35367); assay: Ca Mobilization Potentiation (Eurofins-CEREP); details: @ 10 μM
hTAOK2 = target: T18, hTAOK2 (Homo sapiens, UniProt Q9UL54); assay: KINOMEscan; type: binding
T18 construct: purchased DiscoverX

hCAMK2G = target: T19, hCAMK2G (Homo sapiens, UniProt Q13555); assay: KINOMEscan; type: binding
T19 construct: purchased DiscoverX

hCSF1R = target: T20, hCSF1R (Homo sapiens, UniProt P07333); assay: KINOMEscan; type: binding
T20 construct: purchased DiscoverX (KINOMEscan platform)

hEPHA7 = target: T21, hEPHA7 (Homo sapiens, UniProt Q15375); assay: KINOMEscan; type: binding
T21 construct: purchased DiscoverX

hROCK2 = target: T22, hROCK2 (Homo sapiens, UniProt O75116); assay: KINOMEscan; type: binding
T22 construct: purchased DiscoverX (KINOMEscan platform)

MDA MB-231 cells = assay: Proliferation assay (CellTiter-Glo); type: cell-based, human
Experimental: Cell viability was measured using CellTiter-Glo^TM (Promega) according to the manufacturer's instructions.

hADCK3 = target: T23, hADCK3 (Homo sapiens, UniProt Q8NI60); assay: KINOMEscan; type: binding
T23 construct: purchased DiscoverX

hIKK-epsilon = target: T24, hIKK-epsilon (Homo sapiens, UniProt Q14164); assay: KINOMEscan; type: binding
T24 construct: purchased DiscoverX (KINOMEscan panel)

hFGFR4 = target: T25, hFGFR4 (Homo sapiens, UniProt P22455); assay: KINOMEscan; type: binding
T25 construct: purchased DiscoverX

hTAOK1 = target: T26, hTAOK1 (Homo sapiens, UniProt Q7L7X3); assay: KINOMEscan; type: binding
T26 construct: purchased DiscoverX

hTNK1 = target: T27, hTNK1 (Homo sapiens, UniProt Q13470); assay: KINOMEscan; type: binding
T27 construct: purchased DiscoverX

hFGFR3 = target: T28, hFGFR3 (Homo sapiens, UniProt P22607); assay: KINOMEscan; type: binding
T28 construct: purchased DiscoverX

hTRKC = target: T29, hTRKC (Homo sapiens, UniProt Q16288); assay: KINOMEscan; type: binding
T29 construct: purchased DiscoverX

hDCAMKL2 = target: T30, hDCAMKL2 (Homo sapiens, UniProt Q8N568); assay: KINOMEscan; type: binding
T30 construct: purchased DiscoverX (KINOMEscan platform)

hMARK3 = target: T31, hMARK3 (Homo sapiens, UniProt P27448); assay: KINOMEscan; type: binding
T31 construct: purchased DiscoverX

hADRα2A [2] = target: T15, hADRα2A; assay: β-arrestin Antagonist (Eurofins-CEREP); details: read-out: % Effect, Inhibition

T14 sequence (P11362 22-822): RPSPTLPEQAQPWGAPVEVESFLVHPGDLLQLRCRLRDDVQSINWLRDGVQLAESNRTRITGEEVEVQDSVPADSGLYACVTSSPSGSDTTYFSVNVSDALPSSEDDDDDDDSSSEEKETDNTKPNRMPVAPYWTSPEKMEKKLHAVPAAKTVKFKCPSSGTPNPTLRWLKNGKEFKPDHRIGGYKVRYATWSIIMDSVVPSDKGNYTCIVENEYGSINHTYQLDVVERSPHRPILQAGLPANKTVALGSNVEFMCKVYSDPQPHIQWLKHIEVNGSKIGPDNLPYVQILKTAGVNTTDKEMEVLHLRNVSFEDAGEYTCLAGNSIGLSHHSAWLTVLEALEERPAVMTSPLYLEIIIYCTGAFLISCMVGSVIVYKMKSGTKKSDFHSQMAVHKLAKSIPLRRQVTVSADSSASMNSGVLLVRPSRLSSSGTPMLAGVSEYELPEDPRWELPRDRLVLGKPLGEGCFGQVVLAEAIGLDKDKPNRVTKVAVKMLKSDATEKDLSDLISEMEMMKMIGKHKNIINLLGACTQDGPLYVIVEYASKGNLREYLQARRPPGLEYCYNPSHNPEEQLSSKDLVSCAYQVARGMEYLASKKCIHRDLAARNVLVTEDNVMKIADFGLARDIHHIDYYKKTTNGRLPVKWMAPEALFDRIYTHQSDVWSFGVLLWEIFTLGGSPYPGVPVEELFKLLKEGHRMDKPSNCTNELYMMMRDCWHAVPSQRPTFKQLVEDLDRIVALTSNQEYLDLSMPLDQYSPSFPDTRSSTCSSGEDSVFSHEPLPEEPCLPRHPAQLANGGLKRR
T28 sequence (P22607 23-806): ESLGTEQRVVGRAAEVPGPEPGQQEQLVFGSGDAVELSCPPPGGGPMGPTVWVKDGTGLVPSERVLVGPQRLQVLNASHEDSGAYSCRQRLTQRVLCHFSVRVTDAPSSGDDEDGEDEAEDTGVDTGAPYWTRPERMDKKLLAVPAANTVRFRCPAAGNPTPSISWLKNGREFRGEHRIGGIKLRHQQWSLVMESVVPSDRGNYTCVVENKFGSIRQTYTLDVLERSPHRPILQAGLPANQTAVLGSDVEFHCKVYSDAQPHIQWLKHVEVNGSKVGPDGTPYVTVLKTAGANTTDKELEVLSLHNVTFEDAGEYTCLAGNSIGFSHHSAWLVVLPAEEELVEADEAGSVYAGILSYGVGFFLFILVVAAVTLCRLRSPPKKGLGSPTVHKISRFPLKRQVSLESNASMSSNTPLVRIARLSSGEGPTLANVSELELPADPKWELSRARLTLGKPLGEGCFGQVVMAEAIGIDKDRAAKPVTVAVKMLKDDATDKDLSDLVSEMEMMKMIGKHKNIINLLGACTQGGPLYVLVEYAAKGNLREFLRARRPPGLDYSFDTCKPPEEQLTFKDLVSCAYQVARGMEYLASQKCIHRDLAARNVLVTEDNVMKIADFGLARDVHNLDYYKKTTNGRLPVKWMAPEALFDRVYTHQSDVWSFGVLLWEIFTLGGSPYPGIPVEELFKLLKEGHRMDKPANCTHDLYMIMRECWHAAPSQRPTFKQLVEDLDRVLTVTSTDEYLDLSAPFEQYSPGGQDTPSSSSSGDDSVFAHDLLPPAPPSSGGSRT
T7 sequence (Q13523 whole entry): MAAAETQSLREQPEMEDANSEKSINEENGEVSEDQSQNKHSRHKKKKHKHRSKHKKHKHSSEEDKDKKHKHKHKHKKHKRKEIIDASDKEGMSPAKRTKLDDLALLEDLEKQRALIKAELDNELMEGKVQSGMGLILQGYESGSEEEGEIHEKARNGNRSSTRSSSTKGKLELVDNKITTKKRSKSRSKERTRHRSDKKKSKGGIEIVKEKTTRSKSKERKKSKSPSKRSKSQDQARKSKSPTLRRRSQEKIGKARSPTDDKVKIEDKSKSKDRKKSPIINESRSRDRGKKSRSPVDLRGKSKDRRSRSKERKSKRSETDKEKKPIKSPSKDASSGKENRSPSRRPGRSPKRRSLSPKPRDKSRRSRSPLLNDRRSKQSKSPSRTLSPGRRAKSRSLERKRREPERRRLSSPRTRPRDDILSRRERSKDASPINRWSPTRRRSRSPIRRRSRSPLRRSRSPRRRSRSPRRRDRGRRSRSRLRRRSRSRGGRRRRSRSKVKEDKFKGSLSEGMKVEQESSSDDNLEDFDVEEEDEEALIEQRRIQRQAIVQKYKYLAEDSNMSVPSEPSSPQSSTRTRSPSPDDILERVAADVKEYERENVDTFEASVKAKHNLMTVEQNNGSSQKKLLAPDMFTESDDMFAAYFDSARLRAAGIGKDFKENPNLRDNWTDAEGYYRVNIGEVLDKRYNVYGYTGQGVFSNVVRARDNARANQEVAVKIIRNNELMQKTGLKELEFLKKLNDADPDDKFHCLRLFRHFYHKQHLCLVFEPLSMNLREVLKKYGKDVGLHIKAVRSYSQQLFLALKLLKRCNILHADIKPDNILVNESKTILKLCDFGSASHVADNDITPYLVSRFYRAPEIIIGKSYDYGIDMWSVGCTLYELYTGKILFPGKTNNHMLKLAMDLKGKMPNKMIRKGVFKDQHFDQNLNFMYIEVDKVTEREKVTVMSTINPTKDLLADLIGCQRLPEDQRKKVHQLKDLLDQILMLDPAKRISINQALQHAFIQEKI
T1 sequence (Q9P2K8 590-1001 S808G limits assumed): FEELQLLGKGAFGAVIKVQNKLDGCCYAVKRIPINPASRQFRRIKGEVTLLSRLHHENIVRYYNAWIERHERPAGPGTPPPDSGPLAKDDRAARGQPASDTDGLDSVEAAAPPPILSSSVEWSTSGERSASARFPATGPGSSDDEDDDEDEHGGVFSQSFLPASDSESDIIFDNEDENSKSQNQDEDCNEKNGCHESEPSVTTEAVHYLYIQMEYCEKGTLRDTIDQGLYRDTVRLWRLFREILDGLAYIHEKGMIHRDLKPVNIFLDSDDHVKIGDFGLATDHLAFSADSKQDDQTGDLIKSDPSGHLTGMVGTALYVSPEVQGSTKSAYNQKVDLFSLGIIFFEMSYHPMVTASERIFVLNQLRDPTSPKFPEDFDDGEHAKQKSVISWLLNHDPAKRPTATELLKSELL
T16 sequence (P00533 25-1210 L858R): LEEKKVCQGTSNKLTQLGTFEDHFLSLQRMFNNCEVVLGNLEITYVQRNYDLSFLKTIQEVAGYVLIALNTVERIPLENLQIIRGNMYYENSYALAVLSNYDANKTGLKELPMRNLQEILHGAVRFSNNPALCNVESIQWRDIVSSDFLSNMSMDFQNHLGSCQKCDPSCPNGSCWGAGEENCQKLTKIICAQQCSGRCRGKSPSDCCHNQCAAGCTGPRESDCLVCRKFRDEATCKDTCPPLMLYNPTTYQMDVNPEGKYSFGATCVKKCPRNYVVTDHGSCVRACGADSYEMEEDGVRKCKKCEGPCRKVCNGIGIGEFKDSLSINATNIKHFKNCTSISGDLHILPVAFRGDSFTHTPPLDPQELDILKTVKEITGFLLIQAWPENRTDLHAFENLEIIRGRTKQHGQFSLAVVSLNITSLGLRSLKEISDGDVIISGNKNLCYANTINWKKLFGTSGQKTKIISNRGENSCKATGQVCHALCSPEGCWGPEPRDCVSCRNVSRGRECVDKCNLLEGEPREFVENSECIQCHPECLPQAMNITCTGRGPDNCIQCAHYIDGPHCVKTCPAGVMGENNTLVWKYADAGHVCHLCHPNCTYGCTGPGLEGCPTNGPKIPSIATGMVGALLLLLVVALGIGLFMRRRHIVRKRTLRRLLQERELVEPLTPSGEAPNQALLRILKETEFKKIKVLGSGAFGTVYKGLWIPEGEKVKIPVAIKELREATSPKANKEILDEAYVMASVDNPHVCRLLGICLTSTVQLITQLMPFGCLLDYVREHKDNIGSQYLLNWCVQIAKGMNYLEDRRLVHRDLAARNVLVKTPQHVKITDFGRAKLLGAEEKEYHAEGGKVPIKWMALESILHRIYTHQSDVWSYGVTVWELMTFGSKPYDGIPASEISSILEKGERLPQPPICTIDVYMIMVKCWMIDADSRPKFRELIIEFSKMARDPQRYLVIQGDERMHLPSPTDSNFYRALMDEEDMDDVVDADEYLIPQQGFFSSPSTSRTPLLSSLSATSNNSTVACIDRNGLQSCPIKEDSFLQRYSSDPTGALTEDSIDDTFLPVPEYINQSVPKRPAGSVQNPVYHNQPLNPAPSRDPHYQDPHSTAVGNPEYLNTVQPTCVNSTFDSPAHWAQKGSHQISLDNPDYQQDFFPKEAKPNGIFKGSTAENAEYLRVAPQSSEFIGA
T4 sequence (Q08881 whole entry): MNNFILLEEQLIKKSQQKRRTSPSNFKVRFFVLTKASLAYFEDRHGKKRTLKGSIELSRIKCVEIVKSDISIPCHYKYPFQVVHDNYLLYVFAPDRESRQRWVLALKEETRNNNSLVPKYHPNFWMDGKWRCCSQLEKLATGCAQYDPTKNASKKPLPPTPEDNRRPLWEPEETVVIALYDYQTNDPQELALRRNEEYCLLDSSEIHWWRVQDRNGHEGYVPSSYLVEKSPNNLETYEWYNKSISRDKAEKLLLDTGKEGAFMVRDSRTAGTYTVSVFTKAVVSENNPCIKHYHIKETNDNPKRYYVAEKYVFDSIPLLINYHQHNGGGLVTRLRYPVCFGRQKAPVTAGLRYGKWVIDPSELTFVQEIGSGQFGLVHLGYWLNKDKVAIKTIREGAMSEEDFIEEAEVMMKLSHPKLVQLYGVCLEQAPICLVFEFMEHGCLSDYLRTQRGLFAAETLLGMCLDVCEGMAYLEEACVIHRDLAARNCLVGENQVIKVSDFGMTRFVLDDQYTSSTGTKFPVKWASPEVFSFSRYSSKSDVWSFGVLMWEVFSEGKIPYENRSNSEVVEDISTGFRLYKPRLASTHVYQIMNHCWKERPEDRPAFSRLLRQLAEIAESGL

Cc1cn(CCN2CCN(c3ccccc3-c3cc(C#N)cc(C(=O)NCCCN4CCCC4)c3)CC2)c2ccccc12 [LLY-507, 3-cyano-5-{2-[4-[2-(3-methylindol-1-yl)ethyl]piperazin-1-yl]-phenyl}-N-[(3-pyrrolidin-1-yl)propyl]benzamide]
IC50 (hGCN2(Kin.Dom.2,S808G)): > 20 µM
IC50 (hHIPK1): > 20 µM
IC50 (hCSNK1A1): > 20 µM
IC50 (hITK): > 20 µM
IC50 (hMAP3K2): > 20 µM
IC50 (hERK8): > 20 µM
IC50 (hPRP4): > 20 µM
IC50 (hFAK): > 20 µM
IC50 (hS6K1): > 20 µM
IC50 (hRET(V804M)): > 20 µM
IC50 (hSIK2): > 20 µM
IC50 (hDAPK1): > 20 µM
IC50 (hHASPIN): > 20 µM
IC50 (hFGFR1): > 20 µM
% Effect, Potentiation (hADRα2A [1]): -20.5%
IC50 (hEGFR(L858R)): > 20 µM
IC50 (hCIT): > 20 µM
% Effect, Potentiation (hADRβ1): 32.1%
% Effect, Potentiation (hH1): -8.5%
IC50 (hTAOK2): > 20 µM
IC50 (hCAMK2G): > 20 µM
IC50 (hCSF1R): > 20 µM
IC50 (hEPHA7): > 20 µM
IC50 (hROCK2): > 20 µM
increase in sensitivity at 7 days compared with 3 to 4-day treatment (MDA MB-231 cells): > 5 fold
IC50 (hADCK3): > 20 µM
IC50 (hIKK-epsilon): > 20 µM
IC50 (hFGFR4): > 20 µM
IC50 (hTAOK1): > 20 µM
IC50 (hTNK1): > 20 µM
IC50 (hFGFR3): > 20 µM
IC50 (hTRKC): > 20 µM
IC50 (hDCAMKL2): > 20 µM
IC50 (hMARK3): > 20 µM
inhibition at 10 µM (hADRα2A [2]): -27.7%
